ChEMBL document CHEMBL1275440, “In vitro activity of telavancin against resistant gram-positive bacteria” (2008)
≈ marks a conversion by molar mass, not a printed value. Calls of active or inactive are those of the source. The calls are words filed in the database; no cut-off is given here.

Experiments:
Enterococcus faecalis [1] = experiment: Antibacterial activity against vancomycin resistant Enterococcus faecalis VanA clinical isolate assessed as susceptibility level by broth microdilution method; assay type: functional
Staphylococcus aureus [2] = experiment: Antibacterial activity against methicillin resistant Staphylococcus aureus clinical isolate by broth microdilution method; assay type: functional
[3] = system: Staphylococcus epidermidis; experiment: Antibacterial activity against methicillin resistant Staphylococcus epidermidis clinical isolate by broth microdilution method; assay type: functional
Streptococcus pyogenes [4] = experiment: Antibacterial activity against Streptococcus pyogenes MED 2040 by broth microdilution method; assay type: functional
Streptococcus agalactiae [5] = experiment: Antibacterial activity against Streptococcus agalactiae MED 2038 by broth microdilution method; assay type: functional
Streptococcus agalactiae [6] = experiment: Antibacterial activity against Streptococcus agalactiae group B clinical isolate assessed as susceptibility level by broth microdilution method; assay type: functional
Streptococcus pyogenes [7] = experiment: Antibacterial activity against Streptococcus pyogenes group A clinical isolate assessed as susceptibility level by broth microdilution method; assay type: functional
Enterococcus faecium [8] = experiment: Antibacterial activity against vancomycin resistant Enterococcus faecium VanA clinical isolate by broth microdilution method; assay type: functional
Staphylococcus capitis [9] = experiment: Antibacterial activity against methicillin resistant coagulase-negative Staphylococcus capitis clinical isolate assessed as susceptibility level by broth microdilution method; assay type: functional
[10] = system: Staphylococcus haemolyticus; experiment: Antibacterial activity against methicillin resistant coagulase-negative Staphylococcus haemolyticus clinical isolate by broth microdilution method; assay type: functional
Enterococcus faecium [11] = experiment: Antibacterial activity against vancomycin resistant Enterococcus faecium VanB clinical isolate assessed as susceptibility level by broth microdilution method; assay type: functional
[12] = system: Staphylococcus saprophyticus; experiment: Antibacterial activity against methicillin resistant coagulase-negative Staphylococcus saprophyticus clinical isolate assessed as susceptibility level by broth microdilution method; assay type: functional
[13] = system: Staphylococcus auricularis; experiment: Antibacterial activity against methicillin resistant coagulase-negative Staphylococcus auricularis clinical isolate assessed as susceptibility level by broth microdilution method; assay type: functional
Enterococcus faecalis [14] = experiment: Antibacterial activity against vancomycin resistant Enterococcus faecalis VanA clinical isolate by broth microdilution method; assay type: functional
Enterococcus faecium [15] = experiment: Antibacterial activity against vancomycin resistant Enterococcus faecium VanB clinical isolate by broth microdilution method; assay type: functional
[16] = system: Streptococcus intermedius; experiment: Antibacterial activity against Streptococcus intermedius clinical isolate by broth microdilution method; assay type: functional
Streptococcus oralis [17] = experiment: Antibacterial activity against Streptococcus oralis clinical isolate by broth microdilution method; assay type: functional
Streptococcus viridans [18] = experiment: Antibacterial activity against Streptococcus viridans clinical isolate assessed as susceptibility level by broth microdilution method; assay type: functional
Streptococcus agalactiae [19] = experiment: Antibacterial activity against Streptococcus agalactiae group B clinical isolate by broth microdilution method; assay type: functional
Streptococcus pneumoniae [20] = experiment: Antibacterial activity against penicillin intermediate Streptococcus pneumoniae clinical isolate assessed as susceptibility level by broth microdilution method; assay type: functional
Staphylococcus aureus [21] = experiment: Antibacterial activity against methicillin resistant Staphylococcus aureus clinical isolate assessed as susceptibility level by broth microdilution method; assay type: functional
Streptococcus pneumoniae [22] = experiment: Antibacterial activity against multidrug-resistant Streptococcus pneumoniae clinical isolate by broth microdilution method; assay type: functional
[23] = system: Streptococcus intermedius; experiment: Antibacterial activity against Streptococcus intermedius clinical isolate assessed as susceptibility level by broth microdilution method; assay type: functional
Enterococcus faecalis [24] = experiment: Antibacterial activity against vancomycin resistant Enterococcus faecalis VanB clinical isolate assessed as susceptibility level by broth microdilution method; assay type: functional
[25] = (§1) Antibacterial activity against methicillin resistant coagulase-negative Staphylococcus hominis subsp. novobiosepticus clinical isolate assessed as susceptibility level by broth microdilution method; assay type: functional
[26] = system: Staphylococcus saprophyticus; experiment: Antibacterial activity against methicillin resistant coagulase-negative Staphylococcus saprophyticus clinical isolate by broth microdilution method; assay type: functional
Staphylococcus capitis [27] = experiment: Antibacterial activity against methicillin resistant coagulase-negative Staphylococcus capitis clinical isolate by broth microdilution method; assay type: functional
Enterococcus faecium [28] = experiment: Antibacterial activity against vancomycin resistant Enterococcus faecium VanA clinical isolate assessed as susceptibility level by broth microdilution method; assay type: functional
Streptococcus pyogenes [29] = experiment: Antibacterial activity against Streptococcus pyogenes group A clinical isolate by broth microdilution method; assay type: functional
Streptococcus oralis [30] = experiment: Antibacterial activity against Streptococcus oralis clinical isolate assessed as susceptibility level by broth microdilution method; assay type: functional
Streptococcus pneumoniae [31] = experiment: Antibacterial activity against multidrug resistant Streptococcus pneumoniae MED 1090 by broth microdilution method; assay type: functional
Streptococcus pneumoniae [32] = experiment: Antibacterial activity against multidrug-resistant Streptococcus pneumoniae clinical isolate assessed as susceptibility level by broth microdilution method; assay type: functional
[33] = system: Staphylococcus epidermidis; experiment: Antibacterial activity against methicillin resistant Staphylococcus epidermidis clinical isolate assessed as susceptibility level by broth microdilution method; assay type: functional
Enterococcus faecalis [34] = experiment: Antibacterial activity against vancomycin resistant Enterococcus faecalis VanB clinical isolate by broth microdilution method; assay type: functional
Streptococcus pneumoniae [35] = experiment: Antibacterial activity against penicillin resistant Streptococcus pneumoniae clinical isolate assessed as susceptibility level by broth microdilution method; assay type: functional
Streptococcus pneumoniae [36] = experiment: Antibacterial activity against penicillin intermediate Streptococcus pneumoniae clinical isolate by broth microdilution method; assay type: functional
Streptococcus viridans [37] = experiment: Antibacterial activity against Streptococcus viridans clinical isolate by broth microdilution method; assay type: functional
Streptococcus mitis [38] = experiment: Antibacterial activity against Streptococcus mitis clinical isolate by broth microdilution method; assay type: functional
[39] = (§2) Antibacterial activity against methicillin resistant coagulase-negative Staphylococcus hominis subsp. novobiosepticus clinical isolate by broth microdilution method; assay type: functional
Enterococcus faecalis [40] = system: Enterococcus faecalis
[41] = system: Streptococcus constellatus; experiment: Antibacterial activity against Streptococcus constellatus clinical isolate by broth microdilution method; assay type: functional
Streptococcus pneumoniae [42] = experiment: Antibacterial activity against penicillin resistant Streptococcus pneumoniae clinical isolate by broth microdilution method; assay type: functional
[43] = system: Staphylococcus haemolyticus; experiment: Antibacterial activity against methicillin resistant coagulase-negative Staphylococcus haemolyticus clinical isolate assessed as susceptibility level by broth microdilution method; assay type: functional
Streptococcus mitis [44] = experiment: Antibacterial activity against Streptococcus mitis clinical isolate assessed as susceptibility level by broth microdilution method; assay type: functional
[45] = system: Staphylococcus auricularis; experiment: Antibacterial activity against methicillin resistant coagulase-negative Staphylococcus auricularis clinical isolate by broth microdilution method; assay type: functional
[46] = system: Streptococcus constellatus; experiment: Antibacterial activity against Streptococcus constellatus clinical isolate assessed as susceptibility level by broth microdilution method; assay type: functional
[47] = system: Staphylococcus hominis subsp. novobiosepticus; experiment: as §1; assay type: functional
[48] = system: Staphylococcus hominis subsp. novobiosepticus; experiment: as §2; assay type: functional

CN[C@H](CC(C)C)C(=O)N[C@H]1C(=O)N[C@@H](CC(N)=O)C(=O)N[C@H]2C(=O)N[C@H]3C(=O)N[C@H](C(=O)N[C@H](C(=O)O)c4cc(O)cc(O)c4-c4cc3ccc4O)[C@H](O)c3ccc(c(Cl)c3)Oc3cc2cc(c3O[C@@H]2O[C@H](CO)[C@@H](O)[C@H](O)[C@H]2O[C@H]2C[C@](C)(N)[C@H](O)[C@H](C)O2)Oc2ccc(cc2Cl)[C@H]1O [VANCOMYCIN]
Percent of isolates susceptible (Enterococcus faecalis [1]): 0% | Activity (Staphylococcus aureus [2]): 100% | MIC50 (Staphylococcus aureus [2]; Staphylococcus aureus): 0.5 mg/L (≈ 0.345 µM) | MIC90 (Staphylococcus aureus [2]; Staphylococcus aureus): 1 mg/L (≈ 0.69 µM) | MIC [3]: 0.5 mg/L (≈ 0.345 µM) | MIC (Streptococcus pyogenes [4]): 0.25 mg/L (≈ 0.173 µM) | MIC (Streptococcus agalactiae [5]): 0.25 mg/L (≈ 0.173 µM) | Activity (Streptococcus agalactiae [6]): 100% | Activity (Streptococcus pyogenes [7]): 98% | MIC50 (Enterococcus faecium [8]): 512 mg/L (≈ 353 µM) | MIC90 (Enterococcus faecium [8]): > 512 mg/L | Activity (Staphylococcus capitis [9]): 100% | MIC50 [10]: 2 mg/L (≈ 1.38 µM) | MIC90 [10]: 2 mg/L (≈ 1.38 µM) | Activity (Enterococcus faecium [11]): 0% | Activity [12]: 100% | Activity [13]: 100% | MIC50 (Enterococcus faecalis [14]): 512 mg/L (≈ 353 µM) | MIC90 (Enterococcus faecalis [14]): > 512 mg/L | MIC50 (Enterococcus faecium [15]): 512 mg/L (≈ 353 µM) | MIC90 (Enterococcus faecium [15]): > 512 mg/L | MIC [16]: 0.25 mg/L (≈ 0.173 µM) | MIC50 [16]: inactive | MIC90 [16]: inactive | MIC (Streptococcus oralis [17]): 0.25 mg/L (≈ 0.173 µM) | MIC50 (Streptococcus oralis [17]): inactive | MIC90 (Streptococcus oralis [17]): inactive | Activity (Streptococcus viridans [18]): 100% | MIC (Streptococcus agalactiae [19]): 0.25 mg/L (≈ 0.173 µM) | MIC50 (Streptococcus agalactiae [19]): 0.25 mg/L (≈ 0.173 µM) | MIC90 (Streptococcus agalactiae [19]): 0.5 mg/L (≈ 0.345 µM) | Activity (Streptococcus pneumoniae [20]): 100% | Activity (Staphylococcus aureus [21]): 100% | MIC50 (Streptococcus pneumoniae [22]): 0.25 mg/L (≈ 0.173 µM) | MIC90 (Streptococcus pneumoniae [22]): 0.25 mg/L (≈ 0.173 µM) | Activity [23]: 100% | Activity (Enterococcus faecalis [24]): 0% | Activity [25]: 100% | MIC50 [26]: 2 mg/L (≈ 1.38 µM) | MIC90 [26]: 2 mg/L (≈ 1.38 µM) | MIC50 (Staphylococcus capitis [27]): 2 mg/L (≈ 1.38 µM) | MIC90 (Staphylococcus capitis [27]): 2 mg/L (≈ 1.38 µM) | Activity (Enterococcus faecium [28]): 0% | MIC50 (Streptococcus pyogenes [29]): 0.25 mg/L (≈ 0.173 µM) | MIC90 (Streptococcus pyogenes [29]): 0.5 mg/L (≈ 0.345 µM) | Activity (Streptococcus oralis [30]): 100% | MIC (Streptococcus pneumoniae [31]): 0.25 mg/L (≈ 0.173 µM) | Activity (Streptococcus pneumoniae [32]): 100% | Activity [33]: 100% | MIC (Enterococcus faecalis [34]): 32 mg/L (≈ 22.1 µM) | Activity (Streptococcus pneumoniae [35]): 100% | MIC50 (Streptococcus pneumoniae [36]): 0.5 mg/L (≈ 0.345 µM) | MIC90 (Streptococcus pneumoniae [36]): 0.5 mg/L (≈ 0.345 µM) | MIC (Streptococcus viridans [37]): 0.25 mg/L (≈ 0.173 µM) | MIC50 (Streptococcus viridans [37]): inactive | MIC90 (Streptococcus viridans [37]): inactive | MIC (Streptococcus mitis [38]): 0.25 mg/L (≈ 0.173 µM) | MIC50 (Streptococcus mitis [38]): inactive | MIC90 (Streptococcus mitis [38]): inactive | MIC50 [39]: 2 mg/L (≈ 1.38 µM) | MIC90 [39]: 2 mg/L (≈ 1.38 µM) | MIC50 (Enterococcus faecalis [40]): inactive | MIC90 (Enterococcus faecalis [40]): inactive | MIC [41]: 0.25 mg/L (≈ 0.173 µM) | MIC50 [41]: inactive | MIC90 [41]: inactive | MIC50 (Streptococcus pneumoniae [42]): 0.25 mg/L (≈ 0.173 µM) | MIC90 (Streptococcus pneumoniae [42]): 0.25 mg/L (≈ 0.173 µM) | Activity [43]: 100% | Activity (Streptococcus mitis [44]): 100% | MIC50 [45]: 2 mg/L (≈ 1.38 µM) | MIC90 [45]: 2 mg/L (≈ 1.38 µM) | Activity [46]: 100%

GENTAMICIN
Activity (Staphylococcus aureus [2]): 97% | MIC50 (Staphylococcus aureus [2]): 0.5 mg/L | MIC90 (Staphylococcus aureus [2]): 2 mg/L | MIC50 [3]: 16 mg/L | MIC90 [3]: > 16 mg/L | Activity (Staphylococcus capitis [9]): 29% | MIC50 [10]: 16 mg/L | MIC90 [10]: > 16 mg/L | Activity [12]: 29% | Activity [13]: 29% | Activity (Staphylococcus aureus [21]): 97% | Activity [47]: 29% | MIC50 [26]: 16 mg/L | MIC90 [26]: > 16 mg/L | MIC50 (Staphylococcus capitis [27]): 16 mg/L | MIC90 (Staphylococcus capitis [27]): > 16 mg/L | Activity [33]: 35% | MIC50 [48]: 16 mg/L | MIC90 [48]: > 16 mg/L | Activity [43]: 29% | MIC50 [45]: 16 mg/L | MIC90 [45]: > 16 mg/L
